Earlier results, collected in patent US20070134724A1, “Phosphorylation of tau by abl” (priority 2005, published 2007).
Where a name gives a salt, the structure may show the parent alone. Read-outs that look alike come from different tables or passages of the source.

Columns and labels:
Aβ [1] = conditions: neurons
Aβ [2] = conditions: guinea pig brains

Cc1ccc(NC(=O)c2ccc(CN3CCN(C)CC3)cc2)cc1Nc1nccc(-c2cccnc2)n1 [Gleevec, imatinib mesylate]
production of Aβ (Aβ [1]): inhibits
production of Aβ (Aβ [2]): inhibits
